The record followed here is ChEMBL document CHEMBL1134603 (J Med Chem, 2001).

In the first experiment the target is T1, Human immunodeficiency virus type 1 reverse transcriptase (Human immunodeficiency virus 1, UniProt Q72547). In words: Inhibition of HIV-1 reverse transcriptase at 25 degree Centigrade.
What is called IC50 is the point on the concentration scale where inhibition reaches its midpoint. The compound `CCc1ccnc2c1N(C)C(=O)c1cccnc1N2CC` showed a concentration for half-maximal inhibition (IC50) of 0.11 µM.

A further experiment addresses T1, Human immunodeficiency virus type 1 reverse transcriptase. In words: Inhibition of HIV-1 reverse transcriptase at 37 degree Centigrade.
For orientation: EC50 means the midpoint of the concentration-response curve. Low values mean a more potent agent, high ones a less potent agent. For the compound `Cc1c(Oc2ccccc2)n(COCCO)c(=O)[nH]c1=O`, the EC50 turned out to be 85 µM.

Consider `Cc1c(Sc2ccccc2)[nH]c(=O)[nH]c1=O`, for which the EC50 was > 250 µM.

On to `Cc1c(Sc2ccccc2)n(C)c(=O)[nH]c1=O`, for which the EC50 is > 150 µM.

`Cc1c(Cc2ccccc2)n(COCCO)c(=O)[nH]c1=O` returned an EC50 of 23 µM. This lies in the double-digit micromolar range.

With `CCOCn1c(Cc2ccccc2)c(C(C)C)c(=O)[nH]c1=O` [EMIVIRINE], the EC50 amounted to 0.004 µM.

`Cc1c(Sc2ccccc2)n(COCCO)c(=O)[nH]c1=O` [HEPT] displayed a half-maximal effective concentration (EC50) of 7 µM.
